Here are results for 10 compounds from patent publication US7879795B2, “Enhancement of tigecycline potency using efflux pump inhibitors” (Mpex Pharmaceuticals, Inc., priority 2004, dated 2011).

The subject of one data set is Enterobacter cloacae 25. Briefly: Antibiotic MIC with fixed concentration of compound 21, Enterobacter cloacae 25. The data set is classed as cell-based.
The test system of data set [1] is Enterobacter aerogenes 19. Briefly: Antibiotic MIC with fixed concentration of compound 21, Enterobacter aerogenes 19. In kind it is cell-based.
A further data set concerns Klebsiella pneumonia 79. Description: Antibiotic MIC with fixed concentration of compound 21, Klebsiella pneumonia 79. In kind it is cell-based. The method, then:
(§1) To further characterize the clinical potential of tigecycline/EPI combinations, the microbiological activity of tigecycline in combination with compound 21 was investigated using clinical isolates of P. aeruginosa and other gram-negative bacteria. In several experiments, described below, the impact of a fixed concentration of compound 21 (2.5 μg/ml) on susceptibility to tigecycline was determined.
(§2) The impact of compound 21 on the activity of tigecycline against representative members of Enterobacteriacaea was also tested.

For a further data set, the system named is Citrobacter freundii 13. Briefly: Antibiotic MIC with fixed concentration of compound 21, Citrobacter freundii 13. The data set is classed as cell-based. The method, then:
as §1, §2

The subject of another data set is Klebsiella pneumonia 73. Briefly: Antibiotic MIC with fixed concentration of compound 21, Klebsiella pneumonia 73. The data set is classed as cell-based. The method, then:
as §1, §2

For a further data set, the system named is PAM1723. To be noted: for stability in rat serum: summary of Table 4, in words. The method, then:
Stability in rat and human serum was also evaluated using a bioassay. 320 μg/ml of the test compound was treated with 50% serum for 4 hours.
Bioassays as described in Example 62 and Example 65 were used to evaluate the stability of various compounds in serum and rabbit kidney homogenates.

In data set [2] the test system is strain PAM1723 of P. aeruginosa. In kind it is in vitro ADME. The method, then:
Stability of compounds was also evaluated using a bioassay. The test compound at 320 μg/ml was treated with rabbit kidney supernatant for 0, 0.5, 1 and 2 hours.

Where two headings read alike, the source gives them in different places. A value given as a limit tells only on which side of the number the result lay.

As to `CC[C@H]1OC(=O)[C@H](C)[C@@H](O[C@H]2C[C@@](C)(OC)[C@@H](O)[C@H](C)O2)[C@H](C)[C@@H](O[C@@H]2O[C@H](C)C[C@H](N(C)C)[C@H]2O)[C@](C)(O)C[C@@H](C)CN(C)[C@H](C)[C@@H](O)[C@]1(C)O` [Azithromycin, reference compound], the Azi (MIC) is 16 µg/mL in the data set on Enterobacter cloacae 25 (azithromycin alone); 32 µg/mL in data set [1] (azithromycin alone); 64 µg/mL with Klebsiella pneumonia 79 (azithromycin alone); 8 µg/mL with Citrobacter freundii 13 (azithromycin alone); 16 µg/mL with Klebsiella pneumonia 73 (azithromycin alone).
For `NCCC[C@H](N)C(=O)N[C@H](CCc1ccccc1)C(=O)Nc1ccc2cccnc2c1` [Compound 28, 2-(S),5-Diamino-pentanoic acid [3-phenyl-1-(R)-(quinolin-7-ylcarbamoyl)-propyl]-amide], the “stability in rat serum” value with PAM1723 is given as “unstable in rat serum”.
As to `C[C@H]1COc2c(N3CCN(C)CC3)c(F)cc3c(=O)c(C(=O)O)cn1c23` [Levofloxacin, reference compound], the Levo (MIC) in the data set with Enterobacter cloacae 25 (levofloxacin alone) stood at 2 µg/mL; in data set [1] (levofloxacin alone), 128 µg/mL; with Klebsiella pneumonia 79 (levofloxacin alone), 64 µg/mL; in the data set with Citrobacter freundii 13 (levofloxacin alone), 64 µg/mL; in the data set with Klebsiella pneumonia 73 (levofloxacin alone), 64 µg/mL.
In the case of `NCCC[C@H](N)C(=O)N[C@H](CCc1ccccc1)C(=O)Nc1cccc(-c2ccccc2)c1` [Compound 26], the “EPI MPC8 after 4 hours at 37° C., Frosen Human serum” value in the data set on PAM1723 (Table 4, human serum) amounted to 2.5 µg/mL. The “EPI MPC8 after 4 hours at 37° C., Frozen Rat serum” value with PAM1723 (Table 4, rat serum) is 2.5 µg/mL. In addition, the “EPI MPC8 after 4 hours at 37° C., Saline” value in the data set with PAM1723 (Table 4, saline) was found to be 2.5 µg/mL. Moreover, the “EPI MPC8 after incubation (h) with rabbit kidney supernatant at 37° C.” value in data set [2] (0 h) was 80 µg/mL; in data set [2] (0.5 h), more than 80 µg/mL; in data set [2] (1 h), more than 80 µg/mL; in data set [2] (2 h), more than 80 µg/mL. Besides, the “EPI MPC8, Saline (2 hours)” value in data set [2] (saline control of rabbit kidney supernatant bioassay, 37° C.) stood at 2.5 µg/mL.
For the compound `NCCC[C@H](N)C(=O)N[C@H](CCc1ccccc1)C(=O)Nc1cnc2ccccc2n1` [Compound 19, 2-(S),5-Diamino-pentanoic acid [3-phenyl-1-(R)-(quinoxalin-2-ylcarbamoyl)-propyl]-amide], the “stability in rat serum” value in the data set on PAM1723 is reported as “unstable in rat serum”.
Same read-out and setting: then `CN(C(=O)[C@@H](CCc1ccccc1)NC(=O)[C@@H](N)CCCN)c1cnc2ccccc2c1` [Compound 18, 2-(S),5-Diamino-pentanoic acid [1-(R)-(methyl-quinolin-3-yl-carbamoyl)-3-phenyl-propyl]amide], with “unstable in rat serum”.
For “L-phenylalanine-L-ornithine-α-naphtylamide [MC-207110, reference compound]”, in the data set on PAM1723 (Table 3, 50% rat serum), the “EPI MPC8 after 4 hours at 37° C., Frozen Rat serum” value was more than 80.
As for `NCCC[C@H](N)C(=O)N[C@H](CCc1ccccc1)C(=O)Nc1cc2ccccc2nn1` [Compound 39, 2-(S),5-Diamino-pentanoic acid [1-(R)-(cinnolin-3-ylcarbamoyl)-3-phenyl-propyl]-amide], in the data set with PAM1723, the “stability in rat serum” value is “unstable in rat serum”.
Take `NCCC[C@H](N)C(=O)N[C@H](CCc1ccccc1)C(=O)Nc1ncc(Cl)cc1Cl` [Compound 36, 2-(S),5-Diamino-pentanoic acid [1-(R)-(3,5-dichloro-pyridin-2-ylcarbamoyl)-3-phenyl-propyl]amide]: the “stability in rat serum” value with PAM1723 is listed as “unstable in rat serum”.
Consider `NCCC[C@H](N)C(=O)N[C@@H](CCc1ccc(F)cc1)C(=O)Nc1cnc2ccccc2c1` [Compound 9, 2-(S),5-Diamino-pentanoic acid [3-(4-fluoro-phenyl)-1-(S)-(quinolin-3-ylcarbamoyl)-propyl]amide], for which the “stability in rat serum” value in the data set on PAM1723 is reported as “unstable in rat serum”.
